Experimental data reported in patent US20030104393A1, “Blood assessment of injury” (priority 2000, published 2003).

System: blood cells
Test: Genes induced in blood 24 hours following kainate induced seizures (Affymetrix microarray)
Format: in vivo, rat
Conditions: for Average fold induction / Minimum fold induction: rat blood 24 h after kainate induced seizures vs untouched controls
Procedure: Status epilepticus is produced by intraperitoneally injecting a glutamate analogue/excitotoxin, kainic acid (10 mg/kg i.p.). Animals with kainate-induced seizures are observed following drug administration to ensure that they continue to have complex seizures over a 30 minute period.
All animals are allowed to survive for 24 hours following each treatment. At that time they are deeply anesthetized with ketamine (100 mg/kg) and xylazine (20 mg/kg) given intraperitoneally. Once anesthetized, the chest is opened and a direct cardiac puncture performed with a syringe and 10 cc of blood is aspirated. Immediately following removal of the blood, the animal is decapitated while deeply anesthetized and the brain removed.
One day after hypoxia, status epilepticus, hypoglycemia, ischemic stroke, and hemorrhagic stroke are produced in adult rats, RNA or protein is isolated from the blood cells and from the brains of the animals described in Example 1. The pattern of genes or proteins expressed in the blood cells following each of these types of injury—hypoxia, status epilepticus, hypoglycemia, ischemic stroke, and hemorrhagic stroke is captured on a commercially available microarray (Affymetrix chip). The pattern of gene or protein expression is defined using an expression method, which then forms a genomic or proteomic organ injury database, which is used in assessing injury.
For the tables of genes induced in the blood, the genome expression of blood in the hypoxic animals (3 animals) was compared to the genome expression of blood in untouched control animals (3 animals). The genome expression of blood in the animals with status epilepticus (3 animals) was compared to the genome expression of blood in the untouched control animals (3 animals). The genome expression of blood in the animals with stroke (3 animals) was compared to the genome expression of blood in the sham operated control animals (3 animals). In each case the accession number of the gene and the fold change in gene expression is given—with a maximum estimate and a minimum estimate.
Table 2 sets forth genes induced in the blood of rats 24 hours following kainate induced seizures (n=3 rats) as compared with genes expressed in the blood of untouched control rats (n=3 rats). The accession number of the gene is given, the name of the gene is given where known, the average fold induction is given, as well as the minimum fold induction is given for each gene. A number of the genes are ESTs that have not yet been subjected to a BLAST search. This list was shortened to show only those genes induced at least 2.8 fold. Over 100 genes were induced following kainate on arrays that contained over 8000 genes.

[1] = gene AF027571_s_at phospholipase C-beta 4 isoform (PLC-b4)
[2] = gene AF091563_i_at isolate QIL-LD1 olfactory receptor
[3] = gene AF102552_s_at ankyrin G isoform
[4] = gene D84485_at PMSG-induced ovarian mRNA
[5] = gene L42855_at RNA polymerase II transcription factor SIII p18 subunit
[6] = gene L81136cds_f_at Rps2r1 preliminary DNA
[7] = gene M96159_at adenylyl cyclase type V
[8] = gene S54212_at ciliary neurotrophic factor receptor alpha
[9] = gene U66566_at receptor type protein tyrosine phophatase psi
[10] = gene X06827_at porphobilinogen deaminase
[11] = gene Z28351exon_s_at 25-hydroxyvitamin D3 24-hydroxylase

For C=C(C)[C@H]1CN[C@H](C(=O)O)[C@H]1CC(=O)O [kainate, kainic acid], the Average fold induction [1] was 4.15 fold, the Minimum fold induction [1] was 2.5 fold and the Average fold induction (gene AF045464_s_at) was 6.5 fold. The Minimum fold induction (gene AF045464_s_at) was 2.5 fold, the Average fold induction (gene AF079162_at patched (ptc)) was 5.4 fold and the Minimum fold induction (gene AF079162_at patched (ptc)) was 3.2 fold. It also gave an Average fold induction [2] of 3.4 fold, a Minimum fold induction [2] of 2.4 fold and an Average fold induction [3] of 4.6 fold. It also gave a Minimum fold induction [3] of 2.4 fold, an Average fold induction [4] of 11.4 fold and a Minimum fold induction [4] of 3.1 fold. For the same compound, the Average fold induction (gene D89863_g_at (M-ras) M-Ras) was 5.6 fold, the Minimum fold induction (gene D89863_g_at (M-ras) M-Ras) was 2.3 fold and the Average fold induction [5] was 4.32 fold. It also gave a Minimum fold induction [5] of 3.4 fold, an Average fold induction [6] of 3.9 fold and a Minimum fold induction [6] of 2.7 fold. The Average fold induction (gene L81138exon Rps2r gene) was 5.5 fold, the Minimum fold induction (gene L81138exon Rps2r gene) was 2.3 fold and the Average fold induction (gene M91234_f_at VL30 element) was 4.4 fold. For the same compound, the Minimum fold induction (gene M91234_f_at VL30 element) was 2.5 fold, the Average fold induction (gene M91235_f_at VL30 element) was 3.9 fold and the Minimum fold induction (gene M91235_f_at VL30 element) was 3 fold. For the same compound, the Average fold induction [7] was 10 fold, the Minimum fold induction [7] was 2.9 fold and the Average fold induction (gene Rc_AA799614_at) was 4.7 fold. For the same compound, the Minimum fold induction (gene Rc_AA799614_at) was 2.5 fold, the Average fold induction (gene Rc_AA852046_s_at) was 4.3 fold and the Minimum fold induction (gene Rc_AA852046_s_at) was 2.5 fold. It also gave an Average fold induction (gene Rc_AA891828_at) of 4 fold, a Minimum fold induction (gene Rc_AA891828_at) of 2.6 fold and an Average fold induction (gene Rc_AA894273_at) of 5.2 fold. The Minimum fold induction (gene Rc_AA894273_at) was 2.8 fold, the Average fold induction (gene Rc_AA925529_at) was 4 fold and the Minimum fold induction (gene Rc_AA925529_at) was 3 fold. It also gave an Average fold induction (gene Rc_AA955182_g_at) of 9 fold, a Minimum fold induction (gene Rc_AA955182_g_at) of 2.3 fold and an Average fold induction (gene Rc_AI104924_f_at) of 4.1 fold. It also gave a Minimum fold induction (gene Rc_AI104924_f_at) of 3.3 fold, an Average fold induction [8] of 2.8 fold and a Minimum fold induction [8] of 2.6 fold. For the same compound, the Average fold induction [9] was 5.5 fold, the Minimum fold induction [9] was 4.3 fold and the Average fold induction (gene U73030_at) was 4.1 fold. It also gave a Minimum fold induction (gene U73030_at) of 2.4 fold, an Average fold induction [10] of 3.6 fold and a Minimum fold induction [10] of 3 fold. It also gave an Average fold induction (gene X60675_at interleukin 10) of 3.6 fold, a Minimum fold induction (gene X60675_at interleukin 10) of 2.3 fold and an Average fold induction (gene X76697_at B7 antigen) of 5.7 fold. It also gave a Minimum fold induction (gene X76697_at B7 antigen) of 2.5 fold, an Average fold induction [11] of 3.5 fold and a Minimum fold induction [11] of 2.3 fold. The Average fold induction (gene rc_AI102562_at) was 3 fold, the Minimum fold induction (gene rc_AI102562_at) was 2.4 fold and the “Number of genes induced following kainate” value (rat blood, arrays that contained over 8000 genes) was “Over 100 genes”.
